Read-outs that look alike come from different tables or passages of the source.
What was measured:
[1] = at 20° C.; cited from earlier work
[2] = Absorbent body migration rate of sanitary napkin; settings: horse EDTA blood, after second dropping; agent coated about 5 g/m^2
Experimental: (§1) A commercially available sanitary napkin was prepared. The sanitary napkin was formed from a top sheet, formed of a hydrophilic agent-treated air-through nonwoven fabric (composite fiber composed of polyester and polyethylene terephthalate, basis weight: 35 g/m^2), a second sheet, formed of an air-through nonwoven fabric (composite fiber composed of polyester and polyethylene terephthalate, basis weight: 30 g/m^2), an absorbent body comprising pulp (basis weight: 150-450 g/m^2, increased at the center section), an acrylic super-absorbent polymer (basis weight: 15 g/m^2) and tissue as a core wrap, a water-repellent agent-treated side sheet, and a back sheet composed of a polyethylene film.
(§2) The skin contact surface of the top sheet of the sanitary napkin was coated with the aforementioned blood modifying agent. Each blood modifying agent was used directly, when the blood modifying agent was liquid at room temperature, or when the blood modifying agent was solid at room temperature it was heated to its […], and a control seam HMA gun was used for atomization of the blood modifying agent and coating onto the entire skin contact surface of the top sheet to a basis weight of about 5 g/m^2.
(§3) (obtained by adding appropriate amount of ethylenediaminetetraacetic acid (hereunder, “EDTA”) to horse blood to prevent coagulation) was dropped through the hole using a pipette (once), and after 1 minute, 3 g of horse EDTA blood at 37±1° C. was again added dropwise through the acrylic board hole with a pipette (twice).
In addition to the rewetting rate evaluation, the “absorbent body migration rate” was also measured as the time until migration of blood from the top sheet to the absorbent body after the second dropping of blood. The absorbent body migration rate is the time from introducing the blood onto the top sheet, until the redness of the blood […] on the surface and in the interior of the top sheet.

[3] = Rewetting rate of sanitary napkin with blood modifying agent-coated top sheet; settings: horse EDTA blood 3 g twice at 37±1° C.; agent coated about 5 g/m^2 on top sheet
Experimental: as §1, §2, §3

[4] = Water solubility, visual evaluation after 24 hours
Description: As used herein, the term “solubility” in regard to water solubility includes cases where the sample completely dissolves in deionized water to form a homogeneous mixture, and cases where the sample is completely emulsified. As used herein, “completely” means that no mass of the sample remains in the deionized water.

Molecule | Absorber migration rate [2] | other results
CCCCC(=O)CCCC [5-nonanone] |  | Vapor pressure [1]: about 230 Pa
CC(C)CCCCCCCCCCCCCCCOC(=O)CC(O)C(=O)OCCCCCCCCCCCCCCCC(C)C (stereo not drawn) [Diisostearyl malate] | 8 s | Rewetting rate (%) [3]: 5.5%; Water solubility (g) [4]: 20< g
CCCCCCCCOC(=O)CCCCC(=O)OCCCCCCCC [Dioctyl adipate] | 6 s | 
CCCCCCCCCCCCOC(=O)CCCCCCCCCCC [ELECTOL WE20, Ester of dodecanoic acid (C12) and dodecyl alcohol (C12)] | 5 s | 
CCCCCCCCCCCCCC(=O)OCCCCCCCCCCCC [ELECTOL WE40, Ester of tetradecanoic acid (C14) and dodecyl alcohol (C12)] | 4 s | 
CCCCCCCCCCCC(=O)OCC(O)CO (stereo not drawn) [Monomuls 90-L2 lauric acid monoglyceride, lauric acid monoglyceride] | 7 s | 
CCCCC(CC)C(=O)OCC(COC(=O)C(CC)CCCC)OC(=O)C(CC)CCCC (stereo not drawn) [PANACET 800B] | 3 s | Rewetting rate (%) [3]: 2.0%; Water solubility [4]: <0.05 g
CCCCCCCC(=O)OCC(COC(=O)CCCCCCC)OC(=O)CCCCCCC [PANACET 800] | 3 s | 
CCCCOC(=O)CC(CC(=O)OCCCC)(OC(C)=O)C(=O)OCCCC [Tributyl O-acetylcitrate] | 8 s | Rewetting rate (%) [3]: 6.2%; Water solubility ([4]; in 100 g of water at 25° C., 24 hours): <0.05 g
CCCCC(CC)C(=O)OCC(C)(C)COC(=O)C(CC)CCCC (stereo not drawn) [UNISTAR H-208BRS, Neopentylglycol di-2-ethylhexanoate] | 5 s | 
Caprylic acid diglyceride | 9 s | 
Isopropyl citrate | 5 s | 
